According to PubChem BioAssay (NCI):
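Each compound was tested at five concentrations against cells in 96-well plates for 48 hours. The concentration for 50% growth inhibition is given as GI50. TGI: concentration producing complete growth inhibition.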

Assays:
Assay in all cases: inhibition of tumour cell growth, NCI panel, 48 h
RPMI-8226 leukemia = tested on: RPMI-8226 leukemia
HCT-116 colon = tested on: HCT-116 colon
UACC-62 melanoma = tested on: UACC-62 melanoma
OVCAR-5 ovarian = tested on: OVCAR-5 ovarian
786-0 renal = tested on: 786-0 renal
IGROV1 ovarian = tested on: IGROV1 ovarian
OVCAR-8 ovarian = tested on: OVCAR-8 ovarian
DU-145 prostate = tested on: DU-145 prostate
MCF7 breast = tested on: MCF7 breast
SF-539 CNS = tested on: SF-539 CNS
COLO 205 colon = tested on: COLO 205 colon
LOX IMVI melanoma = tested on: LOX IMVI melanoma
M14 melanoma = tested on: M14 melanoma
EKVX NSCLC = tested on: EKVX NSCLC
NCI-H460 lung = tested on: NCI-H460 lung
SNB-19 CNS = tested on: SNB-19 CNS
BT-549 breast = tested on: BT-549 breast
SF-295 CNS = tested on: SF-295 CNS
SN12C renal = tested on: SN12C renal
T-47D breast = tested on: T-47D breast
SW-620 colon = tested on: SW-620 colon
U251 CNS = tested on: U251 CNS
UO-31 renal = tested on: UO-31 renal
SF-268 CNS = tested on: SF-268 CNS
K-562 leukemia = tested on: K-562 leukemia
SR leukemia = tested on: SR leukemia
HT29 colon = tested on: HT29 colon
HOP-92 NSCLC = tested on: HOP-92 NSCLC
NCI-H522 lung = tested on: NCI-H522 lung
NCI-H226 lung = tested on: NCI-H226 lung
ACHN renal = tested on: ACHN renal
MALME-3M melanoma = tested on: MALME-3M melanoma
HS 578T breast = tested on: HS 578T breast
UACC-257 melanoma = tested on: UACC-257 melanoma
MDA-MB-435 = tested on: MDA-MB-435
SK-OV-3 ovarian = tested on: SK-OV-3 ovarian
OVCAR-4 ovarian = tested on: OVCAR-4 ovarian
NCI/ADR-RES ovarian = tested on: NCI/ADR-RES ovarian
A498 renal = tested on: A498 renal
SK-MEL-2 melanoma = tested on: SK-MEL-2 melanoma
HCT-15 colon = tested on: HCT-15 colon
SNB-75 CNS = tested on: SNB-75 CNS
A549 NSCLC = tested on: A549 NSCLC
CAKI-1 renal = tested on: CAKI-1 renal
MDA-MB-231 breast = tested on: MDA-MB-231 breast
KM12 colon = tested on: KM12 colon
TK-10 renal = tested on: TK-10 renal
HCC-2998 colon = tested on: HCC-2998 colon
CCRF-CEM leukemia = tested on: CCRF-CEM leukemia
PC-3 prostate = tested on: PC-3 prostate
SK-MEL-28 melanoma = tested on: SK-MEL-28 melanoma
HOP-62 NSCLC = tested on: HOP-62 NSCLC
OVCAR-3 ovarian = tested on: OVCAR-3 ovarian
SK-MEL-5 melanoma = tested on: SK-MEL-5 melanoma
NCI-H23 lung = tested on: NCI-H23 lung
RXF 393 renal = tested on: RXF 393 renal
MOLT-4 leukemia = tested on: MOLT-4 leukemia
HL-60(TB) leukemia = tested on: HL-60(TB) leukemia

SMILES: Cc1cc(I)cc(CN(C)CCN(C)C)c1O
- GI50 (RPMI-8226 leukemia): 15.5 µM
- TGI (RPMI-8226 leukemia): 51.6 µM
- GI50 (HCT-116 colon): 24.9 µM
- TGI (HCT-116 colon): > 100 µM
- GI50 (UACC-62 melanoma): 17.8 µM
- TGI (UACC-62 melanoma): 33 µM
- GI50 (OVCAR-5 ovarian): 55.7 µM
- TGI (OVCAR-5 ovarian): > 100 µM
- GI50 (786-0 renal): 40.1 µM
- TGI (786-0 renal): > 100 µM
- GI50 (IGROV1 ovarian): 27.7 µM
- TGI (IGROV1 ovarian): 82.7 µM
- GI50 (OVCAR-8 ovarian): 60 µM
- TGI (OVCAR-8 ovarian): > 100 µM
- GI50 (DU-145 prostate): 44.4 µM
- TGI (DU-145 prostate): > 100 µM
- GI50 (MCF7 breast): 25.6 µM
- TGI (MCF7 breast): 66.1 µM
- GI50 (SF-539 CNS): 30.7 µM
- TGI (SF-539 CNS): > 82.8 µM
- GI50 (COLO 205 colon): 17.3 µM
- TGI (COLO 205 colon): 33.3 µM
- GI50 (LOX IMVI melanoma): 24.4 µM
- TGI (LOX IMVI melanoma): > 73.1 µM
- GI50 (M14 melanoma): 16 µM
- TGI (M14 melanoma): 31.8 µM
- GI50 (EKVX NSCLC): 61.5 µM
- TGI (EKVX NSCLC): > 100 µM
- GI50 (NCI-H460 lung): 26.7 µM
- TGI (NCI-H460 lung): > 100 µM
- GI50 (SNB-19 CNS): 64.3 µM
- TGI (SNB-19 CNS): > 100 µM
- GI50 (BT-549 breast): 26.8 µM
- TGI (BT-549 breast): > 78.3 µM
- GI50 (SF-295 CNS): 20.5 µM
- TGI (SF-295 CNS): 56.8 µM
- GI50 (SN12C renal): 47.4 µM
- TGI (SN12C renal): > 100 µM
- GI50 (T-47D breast): 28.8 µM
- TGI (T-47D breast): > 100 µM
- GI50 (SW-620 colon): 39.5 µM
- TGI (SW-620 colon): > 100 µM
- GI50 (U251 CNS): 39.2 µM
- TGI (U251 CNS): > 100 µM
- GI50 (UO-31 renal): 40.7 µM
- TGI (UO-31 renal): > 100 µM
- GI50 (SF-268 CNS): 20.7 µM
- TGI (SF-268 CNS): > 73 µM
- GI50 (K-562 leukemia): 24.9 µM
- TGI (K-562 leukemia): > 64.3 µM
- GI50 (SR leukemia): 5.44 µM
- TGI (SR leukemia): 50.4 µM
- GI50 (HT29 colon): 19.4 µM
- TGI (HT29 colon): 41.9 µM
- GI50 (HOP-92 NSCLC): 17.1 µM
- TGI (HOP-92 NSCLC): 67.3 µM
- GI50 (NCI-H522 lung): 36.8 µM
- TGI (NCI-H522 lung): > 100 µM
- GI50 (NCI-H226 lung): 75.3 µM
- TGI (NCI-H226 lung): > 100 µM
- GI50 (ACHN renal): 39.6 µM
- TGI (ACHN renal): > 100 µM
- GI50 (MALME-3M melanoma): 18.9 µM
- TGI (MALME-3M melanoma): 36.8 µM
- GI50 (HS 578T breast): 26 µM
- TGI (HS 578T breast): > 69 µM
- GI50 (UACC-257 melanoma): 39.3 µM
- TGI (UACC-257 melanoma): > 62 µM
- GI50 (MDA-MB-435): 18.8 µM
- TGI (MDA-MB-435): 48.9 µM
- GI50 (SK-OV-3 ovarian): 76.6 µM
- TGI (SK-OV-3 ovarian): > 100 µM
- GI50 (OVCAR-4 ovarian): 52.2 µM
- TGI (OVCAR-4 ovarian): > 100 µM
- GI50 (NCI/ADR-RES ovarian): 38.1 µM
- TGI (NCI/ADR-RES ovarian): > 100 µM
- GI50 (A498 renal): 33.8 µM
- TGI (A498 renal): > 77.9 µM
- GI50 (SK-MEL-2 melanoma): 22.1 µM
- TGI (SK-MEL-2 melanoma): 44.2 µM
- GI50 (HCT-15 colon): 28.5 µM
- TGI (HCT-15 colon): 76.5 µM
- GI50 (SNB-75 CNS): 21.9 µM
- TGI (SNB-75 CNS): 59.9 µM
- GI50 (A549 NSCLC): 46.6 µM
- TGI (A549 NSCLC): > 100 µM
- GI50 (CAKI-1 renal): 26.7 µM
- TGI (CAKI-1 renal): > 80.4 µM
- GI50 (MDA-MB-231 breast): 26.7 µM
- TGI (MDA-MB-231 breast): > 72.3 µM
- GI50 (KM12 colon): 46.3 µM
- TGI (KM12 colon): > 100 µM
- GI50 (TK-10 renal): 33.1 µM
- TGI (TK-10 renal): > 100 µM
- GI50 (HCC-2998 colon): 16.3 µM
- TGI (HCC-2998 colon): 32.1 µM
- GI50 (CCRF-CEM leukemia): < 0.0354 µM
- GI50 (PC-3 prostate): 29.1 µM
- TGI (PC-3 prostate): > 100 µM
- GI50 (SK-MEL-28 melanoma): 18.2 µM
- TGI (SK-MEL-28 melanoma): 33.4 µM
- GI50 (HOP-62 NSCLC): 37.8 µM
- TGI (HOP-62 NSCLC): > 100 µM
- GI50 (OVCAR-3 ovarian): 41.9 µM
- TGI (OVCAR-3 ovarian): > 100 µM
- GI50 (SK-MEL-5 melanoma): 16.5 µM
- TGI (SK-MEL-5 melanoma): 30.3 µM
- GI50 (NCI-H23 lung): 33.1 µM
- TGI (NCI-H23 lung): > 100 µM
- GI50 (RXF 393 renal): 25.5 µM
- TGI (RXF 393 renal): > 84.8 µM
- GI50 (MOLT-4 leukemia): 26.6 µM
- TGI (MOLT-4 leukemia): > 68.6 µM
- GI50 (HL-60(TB) leukemia): 19.7 µM
- TGI (HL-60(TB) leukemia): 55.9 µM
